Source: PubChem BioAssay AID1259407 (Chemical Carcinogenesis Research Information System (CCRIS), 2018)
The source made the active and inactive calls. How the calls were made is not given here.

Tested on: CCRIS mutagenicity, Ames/micronucleus/aberration tests
Test: CCRIS mutagenicity studies
Description: The CCRIS database contains chemical records with carcinogenicity, mutagenicity, tumor promotion, and tumor inhibition test results. It was developed by the National Cancer Institute (NCI). Data are derived from studies cited in primary journals, current awareness tools, NCI reports, and other sources. Test results have been reviewed by experts in carcinogenesis and mutagenesis.
CCRIS provides historical information from the years 1985 - 2011. It is no longer updated.
This is an archive assay for CCRIS mutagenicity studies.

For `C1COCCO1`, the mutagenic call (End Point: IN VITRO CHROMOSOMAL ABERRATIONS, Test System: CHINESE HAMSTER OVARY CELLS, Metabolic Activation: NONE) was “inactive; negative”, the mutagenic call (End Point: IN VITRO CHROMOSOMAL ABERRATIONS, Test System: CHINESE HAMSTER OVARY CELLS, Metabolic Activation: RAT, LIVER, S-9, AROCLOR 1254) was “inactive; negative” and the mutagenic call (End Point: IN VIVO MICRONUCLEUS, Test System: BONE MARROW ERYTHROCYTES, Species: MOUSE, Strain/Sex: CD-1/MALE, Route: ORAL (GAVAGE)) was “active; positive”. For the same molecule, the mutagenic call (End Point: IN VIVO MICRONUCLEUS, Test System: HEPATOCYTES (BRDU-LABELING), Species: MOUSE, Strain/Sex: CD-1/MALE, Route: ORAL (GAVAGE)) was “active; positive”, the mutagenic call (Test System: AMES SALMONELLA TYPHIMURIUM, Strain/Indicator: TA98, Metabolic Activation: HAMSTER LIVER S-9, PHENOBARBITAL AND BETA-NAPHTHOFLAVONE (10%), Method: PREINCUBATION) was “inactive; negative” and the mutagenic call (Test System: AMES SALMONELLA TYPHIMURIUM, Strain/Indicator: TA98, Metabolic Activation: HAMSTER LIVER S-9, PHENOBARBITAL AND BETA-NAPHTHOFLAVONE (30%), Method: PREINCUBATION) was “inactive; negative”. The mutagenic call (Test System: AMES SALMONELLA TYPHIMURIUM, Strain/Indicator: TA98, Metabolic Activation: NONE, Method: GAS EXPOSURE) was “inactive; negative”, the mutagenic call (Test System: AMES SALMONELLA TYPHIMURIUM, Strain/Indicator: TA98, Metabolic Activation: NONE, Method: PREINCUBATION) was “inactive; negative” and the mutagenic call (Test System: AMES SALMONELLA TYPHIMURIUM, Strain/Indicator: TA98, Metabolic Activation: NONE, Method: STANDARD PLATE) was “inactive; negative”. The mutagenic call (Test System: AMES SALMONELLA TYPHIMURIUM, Strain/Indicator: TA98, Metabolic Activation: RAT LIVER S-9, PHENOBARBITAL AND 5,6-BENZOFLAVONE, Method: PREINCUBATION) was “inactive; negative”, the mutagenic call (Test System: AMES SALMONELLA TYPHIMURIUM, Strain/Indicator: TA98, Metabolic Activation: RAT LIVER S-9, PHENOBARBITAL AND 5,6-BENZOFLAVONE, Method: STANDARD PLATE) was “inactive; negative” and the mutagenic call (Test System: AMES SALMONELLA TYPHIMURIUM, Strain/Indicator: TA98, Metabolic Activation: RAT LIVER S-9, PHENOBARBITAL AND BETA-NAPHTHOFLAVONE (10%), Method: PREINCUBATION) was “inactive; negative”. For the same molecule, the mutagenic call (Test System: AMES SALMONELLA TYPHIMURIUM, Strain/Indicator: TA98, Metabolic Activation: RAT LIVER S-9, PHENOBARBITAL AND BETA-NAPHTHOFLAVONE (30%), Method: PREINCUBATION) was “inactive; negative”, the mutagenic call (Test System: AMES SALMONELLA TYPHIMURIUM, Strain/Indicator: TA98, Metabolic Activation: RAT LIVER S-9, PHENOBARBITAL AND BETA-NAPHTHOFLAVONE, Method: GAS EXPOSURE) was “inactive; negative” and the mutagenic call (Test System: AMES SALMONELLA TYPHIMURIUM, Strain/Indicator: TA100, Metabolic Activation: HAMSTER LIVER S-9, PHENOBARBITAL AND BETA-NAPHTHOFLAVONE (10%), Method: PREINCUBATION) was “inactive; negative”. For the same molecule, the mutagenic call (Test System: AMES SALMONELLA TYPHIMURIUM, Strain/Indicator: TA100, Metabolic Activation: HAMSTER LIVER S-9, PHENOBARBITAL AND BETA-NAPHTHOFLAVONE (30%), Method: PREINCUBATION) was “inactive; negative”, the mutagenic call (Test System: AMES SALMONELLA TYPHIMURIUM, Strain/Indicator: TA100, Metabolic Activation: NONE, Method: GAS EXPOSURE) was “inactive; negative” and the mutagenic call (Test System: AMES SALMONELLA TYPHIMURIUM, Strain/Indicator: TA100, Metabolic Activation: NONE, Method: PREINCUBATION) was “inactive; negative”. The mutagenic call (Test System: AMES SALMONELLA TYPHIMURIUM, Strain/Indicator: TA100, Metabolic Activation: NONE, Method: STANDARD PLATE) was “inactive; negative”, the mutagenic call (Test System: AMES SALMONELLA TYPHIMURIUM, Strain/Indicator: TA100, Metabolic Activation: RAT LIVER S-9, PHENOBARBITAL AND 5,6-BENZOFLAVONE, Method: PREINCUBATION) was “inactive; negative” and the mutagenic call (Test System: AMES SALMONELLA TYPHIMURIUM, Strain/Indicator: TA100, Metabolic Activation: RAT LIVER S-9, PHENOBARBITAL AND 5,6-BENZOFLAVONE, Method: STANDARD PLATE) was “inactive; negative”. The mutagenic call (Test System: AMES SALMONELLA TYPHIMURIUM, Strain/Indicator: TA100, Metabolic Activation: RAT LIVER S-9, PHENOBARBITAL AND BETA-NAPHTHOFLAVONE (10%), Method: PREINCUBATION) was “inactive; negative”, the mutagenic call (Test System: AMES SALMONELLA TYPHIMURIUM, Strain/Indicator: TA100, Metabolic Activation: RAT LIVER S-9, PHENOBARBITAL AND BETA-NAPHTHOFLAVONE (30%), Method: PREINCUBATION) was “inactive; negative” and the mutagenic call (Test System: AMES SALMONELLA TYPHIMURIUM, Strain/Indicator: TA100, Metabolic Activation: RAT LIVER S-9, PHENOBARBITAL AND BETA-NAPHTHOFLAVONE, Method: GAS EXPOSURE) was “inactive; negative”. The mutagenic call (Test System: AMES SALMONELLA TYPHIMURIUM, Strain/Indicator: TA1535, Metabolic Activation: HAMSTER LIVER S-9, PHENOBARBITAL AND BETA-NAPHTHOFLAVONE (10%), Method: PREINCUBATION) was “inactive; negative”, the mutagenic call (Test System: AMES SALMONELLA TYPHIMURIUM, Strain/Indicator: TA1535, Metabolic Activation: HAMSTER LIVER S-9, PHENOBARBITAL AND BETA-NAPHTHOFLAVONE (30%), Method: PREINCUBATION) was “inactive; negative” and the mutagenic call (Test System: AMES SALMONELLA TYPHIMURIUM, Strain/Indicator: TA1535, Metabolic Activation: NONE, Method: GAS EXPOSURE) was “inactive; negative”. The mutagenic call (Test System: AMES SALMONELLA TYPHIMURIUM, Strain/Indicator: TA1535, Metabolic Activation: NONE, Method: PREINCUBATION) was “inactive; negative”, the mutagenic call (Test System: AMES SALMONELLA TYPHIMURIUM, Strain/Indicator: TA1535, Metabolic Activation: NONE, Method: STANDARD PLATE) was “inactive; negative” and the mutagenic call (Test System: AMES SALMONELLA TYPHIMURIUM, Strain/Indicator: TA1535, Metabolic Activation: RAT LIVER S-9, PHENOBARBITAL AND 5,6-BENZOFLAVONE, Method: PREINCUBATION) was “inactive; negative”. For the same molecule, the mutagenic call (Test System: AMES SALMONELLA TYPHIMURIUM, Strain/Indicator: TA1535, Metabolic Activation: RAT LIVER S-9, PHENOBARBITAL AND 5,6-BENZOFLAVONE, Method: STANDARD PLATE) was “inactive; negative” and the mutagenic call (Test System: AMES SALMONELLA TYPHIMURIUM, Strain/Indicator: TA1535, Metabolic Activation: RAT LIVER S-9, PHENOBARBITAL AND BETA-NAPHTHOFLAVONE (10%), Method: PREINCUBATION) was “inactive; negative”.
